# Reference: patent US7879817B2, “Hyaluronic acid derivative and drug containing the same” (priority 2004, dated 2011)
# Experiments:
# [1] = Sustained release property in the rabbit knee joint (residual ratio in synovial fluid and synovium); conditions: intra-articular
# [2] = test system: 1% silver nitrate-induced pain model; test: 1% silver nitrate-induced pain model in rats
# Excerpt: As General anesthesia, inhalation of isoflurane (Forane (registered trade mark), Dainippon Pharmaceutical Co., Ltd., concentration 3.0%, flow rate 2.0 liters/min) filled in a small animal anesthetizer (TK-4, manufactured by BioMachinery Co., Ltd.) was employed.
# Rats (Crj:SD (SPF), male, 6-weeks-old) were fixed in the supine position under ether anesthesia, and a wide area around the knee joint of the left hind paw was shaved with an electric clipper. After disinfecting the area around the joint by spraying 70% alcohol, 1% silver nitrate solution was administered into the knee joint cavity of the left hind paw at a dose of 50 μl/joint using a 29 G needle-tipped syringe for insulin use (manufactured by Terumo Corp.).
# Regarding the administration method, as in the case of algesic substances, the area around the joint was disinfected by spraying 70% alcohol under inhalation anesthesia by isoflurane, and each test substance was administered into the knee joint cavity of the left hind paw at a dose of […] using a 29 G needle-tipped syringe for insulin use (n=5).
# The walking of each group was visually observed and scored by using the following pain score table which was figured walking in score under blinded conditions.
# Score • 0: Normal (includes nearly normal) • 1: Mild claudication • 2: Severe claudication • 3: Walking on three legs
# In addition, the weight loading on the silver nitrate-injected paw (left hind paw) was measured by using a weighting activity analgesia meter (manufactured by Tokken Inc.), and the weight loading rate was calculated by dividing the measured value by the body weight.
# Test substances were orally administered by using a sonde for oral administration to rat (manufactured by Fuchigami Kikai) at a dose of 1 ml/head.
# In FIG. 6, the “Diclofenac Na (p.o.) 50 mg/kg” corresponds to the above-described (i) (high dose group), and the “Diclofenac Na (p.o.) 1 mg/kg” corresponds to the above-described (ii) (low dose group).
# Filter pass through test = format: physicochemical; conditions: 1.0% by weight in PBS, 0.45 μm porous filter (25 mm in diameter), 24° C., 5.0 kg/cm^2
# Method: PBS in which each substance to be tested was dissolved to a concentration of 1.0% by weight was prepared. At a temperature of 24° C. under pressure of 5.0 kg/cm^2, each solution of the substances to be tested prepared in the following examples was passed through a 0.45 μm porous filter (25 mm in diameter), and the passed amount (ml) per 1 minute was measured A case in which 2 ml or more was passed is shown by “A”, and a case in which less than 2 ml was passed by “B”, and a case in which none passed by “C”.
# [3] = Appearance of the 1.0% by weight solution in PBS; format: physicochemical; conditions: dissolved in PBS to 1.0% by weight
# [4] = intra-articular injection 24 hours after 1% silver nitrate, in comparison with PBS
Molecule,"analgesic effect (pain score, walking) [2, 4]",filter pass through test (passed amount per 1 minute) (Filter pass through test),also measured
"CC(C(=O)O)c1cccc(C(=O)c2ccccc2)c1 (centres unmarked) [KP, ketoprofen]",,,time until KP disappeared from the synovial fluid and synovium [1]: ≤ 6 h; time until KP disappeared from the synovium [1]: ≤ 6 h
"O=C(O)Cc1ccccc1Nc1c(Cl)cccc1Cl [diclofenac sodium, reference compound]",did not show significant effect in comparison with PBS,,"adverse effects observed ([2]; oral administration, high dose 50 mg/kg): positive fecal occult blood reaction, jaundice-like symptom and body weight loss were observed from the next day; analgesic effect (pain score, walking) ([2]; oral administration, high dose 50 mg/kg (1% suspension in 10% gum arabic, 1 ml/head)): showed analgesic effect; analgesic effect (pain score, walking) ([2]; oral administration, low dose 1 mg/kg (0.02% suspension in 10% gum arabic, 1 ml/head)): the effect was not found in comparison with the PBS intra-articular injection group"
Aminoethanol-diclofenac-Introduced Sodium Hyaluronate (DS 14.7%) [Example 39],showed remarkable analgesic effect,,
Aminopropanol-acetylsalicylic Acid-Introduced Sodium Hyaluronate [Example 11],,A (2 ml or more was passed),appearance of the solution [3]: colorless and transparent liquid
Aminopropanol-diclofenac-Introduced Sodium Hyaluronate (65 kDa) Sodium (DS 17.1%) [Example 37],"showed diminished analgesic effect in comparison with the case of the molecular weight of 800,000",,
Aminopropanol-diclofenac-Introduced Sodium Hyaluronate (DS 4.3%) [Example 35],showed analgesic effect,,
Aminopropanol-diclofenac-Introduced Sodium Hyaluronate (DS 9.7%) [Example 36],showed a remarkable analgesic effect in comparison with PBS,,
Aminopropanol-diclofenac-Introduced Sodium Hyaluronate [Example 19],,,"analgesic effect (pain score, walking) ([2]; intra-articular injection 24 hours after 1% silver nitrate, in comparison with PBS, listed as DS 18.2%): showed a remarkable analgesic effect in comparison with PBS; analgesic effect (pain score, walking) ([2]; intra-articular injection 24 hours after 1% silver nitrate, in comparison with PBS, listed as diclofenac-introduced hyaluronic acid derivative): showed the analgesic effect after the administration"
Aminopropanol-felbinac-Introduced Hyaluronic Acid [Example 13],,A (2 ml or more was passed),appearance of the solution [3]: colorless and transparent liquid
Aminopropanol-fenbufen-Introduced Hyaluronic Acid [Example 15],,A (2 ml or more was passed),
Aminopropanol-flurbiprofen-Introduced Sodium Hyaluronate [Example 9],,A (2 ml or more was passed),appearance of the solution [3]: colorless and transparent liquid
Aminopropanol-ibuprofen-Introduced Sodium Hyaluronate [Example 7],,A (2 ml or more was passed),
Aminopropanol-mefenamic Acid-Introduced Hyaluronic Acid [Example 17],,A (2 ml or more was passed),appearance of the solution [3]: colorless and transparent liquid
Diaminopropane-diclofenac-Introduced Sodium Hyaluronate (DS 18.1%) [Example 41],had no effect on the test system of this example,,
